The target in experiment [1] is T1, GyrB (gyrase subunit B) (Escherichia coli, UniProt P0AES6).
T1 construct: GyrB migrates predominantly at its predicted size of 27 kDa; made in house; host or cells: E. coli BL21 STAR (DE3)
Description: Ultrafiltration study of coumermycin-induced GyrB dimerization. The experiment is classed as biochemical, E. coli. To be noted: 50 kDa molecular weight cut-off filter; GyrB:coumermycin=2:1; GyrB without coumermycin gave 54%.

The target in experiment [2] is T2, hexahistidine-tagged GyrB (Escherichia coli, UniProt P0AES6).
T2 construct: GyrB migrates predominantly at its predicted size of 27 kDa; made in house; host or cells: E. coli BL21 STAR (DE3)
Nature of the experiment: Antibiotic-dependent hydrogel formation (GyrB released into buffer). Also noted: species or system E. coli. As to conditions: GyrB:coumermycin=2:1 or ten-fold molar excess of novobiocin; mixed with poly(AAm-co-Ni2+-NTA-AAm); 12 hours in PBS. The text has this: The protein is subsequently mixed with poly(AAm-co-Ni^2+-NTA-AAm) at a ratio of one GyrB per 11 Ni^2+ ions chelated in the polymer backbone.

For experiment [3], the target named is T1, GyrB (gyrase subunit B). Description: Antibiotic-triggered GyrB dimerization, DMS crosslinking and SDS-PAGE. The format is biochemical, E. coli. As to conditions: GyrB:coumermycin=2:1, mol/mol; DMS crosslinking; denaturing PAGE; dimer at 54 kDa. Here is the method:
The gene for E. coli gyrase subunit B (gyrB) is tagged with the coding sequence for six histidine residues. The coding region is placed under the control of the phage T7-derived promoter and expressed in E. coli as a soluble cytoplasmatic protein. GyrB is purified via the hexahistidine tag using Ni^2+-based affinity chromatography. Coumermycin-induced dimerization of genetically engineered GyrB is evaluated by incubating the protein in the presence or absence of coumermycin (GyrB:coumermycin=2:1, mol/mol) with subsequent addition of the amine-specific bifunctional crosslinking agent dimethyl-suberimidate (DMS) and analysis of the complexes on denaturing polyacrylamide gel electrophoresis. […]
Concentration of GyrB is analyzed by the Bradford method (Biorad, Muünchen, Germany, cat. no. 500-0006) using BSA as standard. […] Antibiotic-triggered dimerization of GyrB is analyzed by incubating GyrB in the presence coumermycin A1 (GyrB:coumermycin=2:1, mol/mol; Sigma, St. Louis, Mo., cat. no. C9270) for 30 min at room temperature following covalent crosslinking of the dimers by addition of dimethyl suberimidate×2HCl (DMS, SigmaAldrich, St. Louis, Mo., cat. no. 179523) at a 10-fold molar excess with respect to GyrB for 60 min at room temperature. The dimers are analyzed on SDS-PAGE. […]

Take coumermycin A1: in experiment [1], the “GyrB protein in filtrate” value is listed as 2.8%. Further, the “GyrB-polymer complexes released into the buffer / hydrogel formation” value in experiment [2] is recorded as “significantly reduced”. Also, the GyrB dimer formation entry in experiment [3] was “substantial dimer formation”.

The values above are taken from patent US20110151006A1, “STIMULI-RESPONSIVE HYDROGEL” (priority 2008, published 2011).
